Measured values as given in patent publication US8980830B2 (priority 2007, dated 2015).
Read-outs that look alike come from different tables or passages of the source. Bridge positions count the residues as written; N and C are the ends. Square brackets hold non-standard residues; d marks the D form. Ends that are not written are not given here. Peptide text beside a SMILES is read from it. * marks the point of attachment. X1 = CC(C)CCC[C@@H](C)[C@H]1CC[C@H]2[C@@H]3CC=C4C[C@@H](OC(=O)CCOCCOCCOCCOCCOCCOCCOCCOCCOCCOCCOCCOCCNC(=O)CSCCC(=O)*)CC[C@]4(C)[C@H]3CC[C@]12C; PhLac = O=C(O)[C@@H](O)Cc1ccccc1

Columns and labels:
GLP-1 Receptor = GLP-1 Receptor (Homo sapiens, UniProt P43220); test: Functional assay, cAMP induction (luciferase reporter, HEK293) at GLP-1 receptor; assay type: cell-based
Chain of GLP-1 Receptor (P43220 24-463): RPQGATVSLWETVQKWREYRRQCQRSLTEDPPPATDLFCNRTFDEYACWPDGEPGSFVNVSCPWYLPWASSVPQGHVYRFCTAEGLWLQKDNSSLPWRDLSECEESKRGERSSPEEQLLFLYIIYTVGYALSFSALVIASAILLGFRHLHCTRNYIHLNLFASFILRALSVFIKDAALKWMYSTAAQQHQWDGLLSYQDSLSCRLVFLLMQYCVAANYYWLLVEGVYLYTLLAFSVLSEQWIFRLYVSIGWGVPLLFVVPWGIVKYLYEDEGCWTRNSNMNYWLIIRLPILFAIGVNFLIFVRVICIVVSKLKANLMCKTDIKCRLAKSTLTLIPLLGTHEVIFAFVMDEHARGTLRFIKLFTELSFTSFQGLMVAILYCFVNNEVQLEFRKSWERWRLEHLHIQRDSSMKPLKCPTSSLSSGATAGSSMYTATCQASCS

Glucagon Receptor = Glucagon Receptor (Homo sapiens, UniProt P47871); test: cAMP inhibition: antagonism of glucagon-induced cAMP at glucagon receptor; assay type: cell-based; parameters: expressed in transfected cells; host or cells: HEK293
Chain of Glucagon Receptor (P47871 26-477): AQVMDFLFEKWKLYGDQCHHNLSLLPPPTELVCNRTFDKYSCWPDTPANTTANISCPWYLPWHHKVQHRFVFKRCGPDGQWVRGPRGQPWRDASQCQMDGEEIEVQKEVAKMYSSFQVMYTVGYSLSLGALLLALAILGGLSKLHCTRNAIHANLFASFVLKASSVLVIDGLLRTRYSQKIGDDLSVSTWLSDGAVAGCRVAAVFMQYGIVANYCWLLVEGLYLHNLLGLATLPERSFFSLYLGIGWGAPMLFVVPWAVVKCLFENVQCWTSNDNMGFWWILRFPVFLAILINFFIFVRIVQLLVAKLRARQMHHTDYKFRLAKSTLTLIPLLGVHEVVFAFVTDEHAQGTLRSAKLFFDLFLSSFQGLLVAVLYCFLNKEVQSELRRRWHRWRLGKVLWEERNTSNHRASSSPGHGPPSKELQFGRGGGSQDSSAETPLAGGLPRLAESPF

[1] = GLP-1 agonism EC50 (nM), Table 16
[2] = Glucagon antagonism IC50 (nM, inhibit 0.2-0.8 nM glucagon), Table 16, combined results of three assays
[3] = GLP-1 (nM), Table 13, GLP-1 agonist activity
[4] = Table 13, glucagon antagonist activity, read-out: Glu

CSCC[C@H](NC(=O)[C@H](CC(C)C)NC(=O)[C@H](Cc1c[nH]c2ccccc12)NC(=O)[C@H](CCC(N)=O)NC(=O)[C@@H](NC(=O)[C@H](Cc1ccccc1)NC(=O)[C@H](CC(=O)O)NC(=O)[C@H](CCC(N)=O)NC(=O)[C@H](C)NC(=O)[C@H](CCCNC(=N)N)NC(=O)[C@H](CCCNC(=N)N)NC(=O)[C@H](CCC(=O)O)NC(=O)[C@H](CC(=O)O)NC(=O)[C@H](CC(C)C)NC(=O)[C@H](Cc1ccc(O)cc1)NC(=O)[C@H](CCCCN)NC(=O)[C@H](CO)NC(=O)[C@H](Cc1ccc(O)cc1)NC(=O)[C@H](CCC(=O)O)NC(=O)[C@H](CO)NC(=O)[C@@H](NC(=O)[C@@H](O)Cc1ccccc1)[C@@H](C)O)C(C)C)C(=O)N[C@@H](CC(N)=O)C(=O)N[C@H](C(=O)NCC(=O)N1CCC[C@H]1C(=O)N[C@@H](CO)C(=O)N[C@@H](CO)C(=O)NCC(=O)N[C@@H](C)C(=O)N1CCC[C@H]1C(=O)N1CCC[C@H]1C(=O)N1CCC[C@H]1C(=O)N[C@@H](CO)C(N)=O)[C@@H](C)O [[PLA6, E9, E16]G(6-39)] (H-[PhLac]TSEYSKYLDERRAQDFVQWLMNTGPSSGAPPPS-NH2)
EC50 (GLP-1 Receptor; [1]): 1760 nM | IC50 (Glucagon Receptor; [2]): 58.1 nM

CSCC[C@H](NC(=O)[C@H](CC(C)C)NC(=O)[C@H](Cc1c[nH]c2ccccc12)NC(=O)[C@H](CCC(N)=O)NC(=O)[C@@H](NC(=O)[C@H](Cc1ccccc1)NC(=O)[C@H](CC(=O)O)NC(=O)[C@@H]1CCCCNC(=O)CC[C@H](NC(=O)[C@H](CC(=O)O)NC(=O)[C@H](CC(C)C)NC(=O)[C@H](Cc2ccc(O)cc2)NC(=O)[C@H](CCCCN)NC(=O)[C@H](CO)NC(=O)[C@H](Cc2ccc(O)cc2)NC(=O)[C@H](CCC(=O)O)NC(=O)[C@H](CO)NC(=O)[C@@H](NC(=O)[C@@H](N)Cc2ccccc2)[C@@H](C)O)C(=O)N[C@@H](CCCNC(=N)N)C(=O)N[C@@H](CCCNC(=N)N)C(=O)N[C@@H](C)C(=O)N1)C(C)C)C(=O)N[C@@H](CC(N)=O)C(=O)N[C@H](C(=O)NCC(=O)N1CCC[C@H]1C(=O)N[C@@H](CO)C(=O)N[C@@H](CO)C(=O)NCC(=O)N[C@@H](C)C(=O)N1CCC[C@H]1C(=O)N1CCC[C@H]1C(=O)N1CCC[C@H]1C(=O)N[C@@H](CO)C(N)=O)[C@@H](C)O [E9, E16K20(lactam)]
EC50 (GLP-1 Receptor; [1]): 36.4 ± 3.5 nM | IC50 (Glucagon Receptor; [2]): 42 ± 3.6 nM

[PLA6, E16K20(Lactam), C24(20 kDa), D28]G(6-29) ([PhLac]TSDYSKYLDERRAKDFVC(PEG 20 kDa)WLMDT-NH2; lactam 11-15)
EC50 (GLP-1 Receptor; read-out: GLP-1 agonism EC50, Table 21): 450 to 1840 nM | IC50 (Glucagon Receptor; read-out: Glucagon antagonism IC50(nM) (inhibit 0.2-0.8 nM glucagon)): 374 to 1460 nM

CSCC[C@H](NC(=O)[C@H](CC(C)C)NC(=O)[C@H](Cc1c[nH]c2ccccc12)NC(=O)[C@H](CCC(N)=O)NC(=O)[C@@H](NC(=O)[C@H](Cc1ccccc1)NC(=O)[C@H](CC(=O)O)NC(=O)[C@@H]1CCCCNC(=O)CC[C@H](NC(=O)[C@H](CC(=O)O)NC(=O)[C@H](CC(C)C)NC(=O)[C@H](Cc2ccc(O)cc2)NC(=O)[C@H](CCCCN)NC(=O)[C@H](CO)NC(=O)[C@H](Cc2ccc(O)cc2)NC(=O)[C@H](CCC(=O)O)NC(=O)[C@H](CO)NC(=O)[C@@H](NC(=O)[C@H](Cc2ccccc2)NC(=O)[C@@H](NC(=O)CNC(=O)[C@H](CCC(=O)O)NC(=O)[C@H](C)NC(=O)[C@@H](N)Cc2c[nH]cn2)[C@@H](C)O)[C@@H](C)O)C(=O)N[C@@H](CCCNC(=N)N)C(=O)N[C@@H](CCCNC(=N)N)C(=O)N[C@@H](C)C(=O)N1)C(C)C)C(=O)N[C@@H](CC(=O)O)C(=O)N[C@H](C(N)=O)[C@@H](C)O [[A2E3, E16K20(Lactam), D28]G(1 ~ 29)]
EC50 (GLP-1 Receptor; GLP-1 agonism EC50 (nM), Table 18): 0.11 nM | IC50 (Glucagon Receptor; Glucagon antagonism IC50 (nM, inhibit 0.2-0.8 nM glucagon), Table 18): 129 ± 106 nM | character of antagonism (partial antagonist, wrapped cell) (Glucagon Receptor; Table 18): partial | character of antagonism (partial antagonist, wrapped cell) (Glucagon Receptor; Table 19): partial | character of antagonism (partial antagonist, wrapped cell) (Glucagon Receptor; Table 20): partial

CSCC[C@H](NC(=O)[C@H](CC(C)C)NC(=O)[C@H](Cc1c[nH]c2ccccc12)NC(=O)[C@H](CCC(N)=O)NC(=O)[C@@H](NC(=O)[C@H](Cc1ccccc1)NC(=O)[C@H](CC(=O)O)NC(=O)[C@@H]1CCCCNC(=O)CC[C@H](NC(=O)[C@H](CC(=O)O)NC(=O)[C@H](CC(C)C)NC(=O)[C@H](Cc2ccc(O)cc2)NC(=O)[C@H](CCCCN)NC(=O)[C@H](CO)NC(=O)[C@H](Cc2ccc(O)cc2)NC(=O)[C@H](CC(=O)O)NC(=O)[C@H](CO)NC(=O)[C@@H](NC(=O)[C@@H](O)Cc2ccccc2)[C@@H](C)O)C(=O)N[C@@H](CCCNC(=N)N)C(=O)N[C@@H](CCCNC(=N)N)C(=O)N[C@@H](C)C(=O)N1)C(C)C)C(=O)N[C@@H](CC(=O)O)C(=O)N[C@H](C(=O)NCC(=O)N1CCC[C@H]1C(=O)N[C@@H](CO)C(=O)N[C@@H](CO)C(=O)NCC(=O)N[C@@H](C)C(=O)N1CCC[C@H]1C(=O)N1CCC[C@H]1C(=O)N1CCC[C@H]1C(=O)N[C@@H](CO)C(=O)N[C@@H](CCCCNC(=O)CCSCC(=O)NCCOCCOCCOCCOCCOCCOCCOCCOCCOCCOCCOCCOCCC(=O)O[C@H]1CC[C@@]2(C)C(=CC[C@H]3[C@@H]4CC[C@H]([C@H](C)CCCC(C)C)[C@@]4(C)CC[C@@H]32)C1)C(N)=O)[C@@H](C)O [K40-chol G(6-40), [PLA6, E16K20(lactam), D28, K40(COCH2CH2S-Chol)]G(6-40) amide] (H-[PhLac]TSDYSKYLDERRAKDFVQWLMDTGPSSGAPPPSK(X1)-NH2; lactam 11-15)
EC50 (GLP-1 Receptor; GLP-1 agonism EC50 (nM), Table 23, standard deviation in ( )): 47 nM | IC50 (Glucagon Receptor; Glucagon antagonism IC50 (nM, inhibit 0.4 nM glucagon), Table 23, standard deviation in ( )): 312 nM

CSCC[C@H](NC(=O)[C@H](CC(C)C)NC(=O)[C@H](Cc1c[nH]c2ccccc12)NC(=O)[C@H](CCC(N)=O)NC(=O)[C@@H](NC(=O)[C@H](Cc1ccccc1)NC(=O)[C@H](CC(=O)O)NC(=O)[C@H](CCC(N)=O)NC(=O)[C@H](C)NC(=O)[C@H](CCCNC(=N)N)NC(=O)[C@H](CCCNC(=N)N)NC(=O)[C@@H]1CCC(=O)NCCCC[C@H](NC(=O)[C@H](CO)NC(=O)[C@H](Cc2ccc(O)cc2)NC(=O)[C@H](CC(=O)O)NC(=O)[C@H](CO)NC(=O)[C@@H](NC(=O)[C@@H](N)Cc2ccccc2)[C@@H](C)O)C(=O)N[C@@H](Cc2ccc(O)cc2)C(=O)N[C@@H](CC(C)C)C(=O)N[C@@H](CC(=O)O)C(=O)N1)C(C)C)C(=O)N[C@@H](CC(N)=O)C(=O)N[C@H](C(=O)NCC(=O)N1CCC[C@H]1C(=O)N[C@@H](CO)C(=O)N[C@@H](CO)C(=O)NCC(=O)N[C@@H](C)C(=O)N1CCC[C@H]1C(=O)N1CCC[C@H]1C(=O)N1CCC[C@H]1C(=O)N[C@@H](CO)C(N)=O)[C@@H](C)O [D9, K12E16(Lactam)] (H-FTSDYSKYLDERRAQDFVQWLMNTGPSSGAPPPS-NH2; lactam 7-11; N-terminus assumed)
EC50 (GLP-1 Receptor; [3]): 119 nM | EC50 (GLP-1 Receptor; GLP-1 EC50 (nM), Table 15): 18 nM | IC50 (Glucagon Receptor; [4]): 828 nM

CSCC[C@H](NC(=O)[C@H](CC(C)C)NC(=O)[C@H](Cc1c[nH]c2ccccc12)NC(=O)[C@H](CCC(N)=O)NC(=O)[C@@H](NC(=O)[C@H](Cc1ccccc1)NC(=O)[C@H](CC(=O)O)NC(=O)[C@@H]1CCCCNC(=O)CC[C@H](NC(=O)[C@H](CC(=O)O)NC(=O)[C@H](CC(C)C)NC(=O)[C@H](Cc2ccc(O)cc2)NC(=O)[C@H](CCCCN)NC(=O)[C@H](CO)NC(=O)[C@H](Cc2ccc(O)cc2)NC(=O)[C@H](CCC(=O)O)NC(=O)[C@H](CO)NC(=O)[C@@H](NC(=O)[C@H](Cc2ccccc2)NC(=O)[C@@H](NC(=O)CN)[C@@H](C)O)[C@@H](C)O)C(=O)N[C@@H](CCCNC(=N)N)C(=O)N[C@@H](CCCNC(=N)N)C(=O)N[C@@H](C)C(=O)N1)C(C)C)C(=O)N[C@@H](CC(=O)O)C(=O)N[C@H](C(N)=O)[C@@H](C)O [[E9, E16K20(lactam), D28]G(4 ~ 29)] (H-GTFTSEYSKYLDERRAKDFVQWLMDT-NH2; lactam 13-17; N-terminus assumed)
EC50 (GLP-1 Receptor; GLP-1 agonism EC50 (nM), Table 19): 151 ± 8.8 nM | IC50 (Glucagon Receptor; Glucagon IC50 (nM), Table 14): 10 to 30 nM | IC50 (Glucagon Receptor; Glucagon antagonism IC50 (nM, inhibit 0.8 nM glucagon), Table 19): 12.7 ± 1.1 nM

CSCC[C@H](NC(=O)[C@H](CC(C)C)NC(=O)[C@H](Cc1c[nH]c2ccccc12)NC(=O)[C@H](CCC(N)=O)NC(=O)[C@@H](NC(=O)[C@H](Cc1ccccc1)NC(=O)[C@H](CC(=O)O)NC(=O)[C@H](CCC(N)=O)NC(=O)[C@H](C)NC(=O)[C@H](CCCNC(=N)N)NC(=O)[C@H](CCCNC(=N)N)NC(=O)[C@@H]1CCC(=O)NCCCC[C@H](NC(=O)[C@H](CO)NC(=O)[C@H](Cc2ccc(O)cc2)NC(=O)[C@H](CCC(=O)O)NC(=O)[C@H](CO)NC(=O)[C@@H](NC(=O)[C@@H](N)Cc2ccccc2)[C@@H](C)O)C(=O)N[C@@H](Cc2ccc(O)cc2)C(=O)N[C@@H](CC(C)C)C(=O)N[C@@H](CC(=O)O)C(=O)N1)C(C)C)C(=O)N[C@@H](CC(N)=O)C(=O)N[C@H](C(=O)NCC(=O)N1CCC[C@H]1C(=O)N[C@@H](CO)C(=O)N[C@@H](CO)C(=O)NCC(=O)N[C@@H](C)C(=O)N1CCC[C@H]1C(=O)N1CCC[C@H]1C(=O)N1CCC[C@H]1C(=O)N[C@@H](CO)C(N)=O)[C@@H](C)O [E9, K12E16(lactam)] (H-FTSEYSKYLDERRAQDFVQWLMNTGPSSGAPPPS-NH2; lactam 7-11; N-terminus assumed)
EC50 (GLP-1 Receptor; [3]): 63 nM | IC50 (Glucagon Receptor; [4]): 2010 nM
